Columns and labels:
Macaca mulatta = species on record: Macaca mulatta; assay: Selectivity ratio of EC50 for rhesus monkey GCGR to EC50 for rhesus monkey GLP1R
Glucagon receptor = Glucagon receptor (Homo sapiens, UniProt P47871); assay: Agonist activity at human GCGR expressed in frozen cells assessed as increase in cAMP production measured after 1 hr by HitHunter luminescence assay; format: functional, cell-based
[1] = target: Glucagon-like peptide 1 receptor (Homo sapiens, UniProt P43220); assay: Agonist activity at human GLP1R expressed in frozen cells assessed as increase in cAMP production measured after 1 hr by HitHunter luminescence assay; format: functional, cell-based
Homo sapiens = species on record: Homo sapiens; assay: Selectivity ratio of EC50 for human GCGR expressed in frozen cells to EC50 for human GLP1R expressed in frozen cells; format: cell-based
[2] = Agonist activity at rhesus monkey GCGR; set-up: species or system Macaca mulatta
[3] = Agonist activity at rhesus monkey GLP1R; set-up: species or system Macaca mulatta

Chain of Glucagon-like peptide 1 receptor (P43220 whole entry): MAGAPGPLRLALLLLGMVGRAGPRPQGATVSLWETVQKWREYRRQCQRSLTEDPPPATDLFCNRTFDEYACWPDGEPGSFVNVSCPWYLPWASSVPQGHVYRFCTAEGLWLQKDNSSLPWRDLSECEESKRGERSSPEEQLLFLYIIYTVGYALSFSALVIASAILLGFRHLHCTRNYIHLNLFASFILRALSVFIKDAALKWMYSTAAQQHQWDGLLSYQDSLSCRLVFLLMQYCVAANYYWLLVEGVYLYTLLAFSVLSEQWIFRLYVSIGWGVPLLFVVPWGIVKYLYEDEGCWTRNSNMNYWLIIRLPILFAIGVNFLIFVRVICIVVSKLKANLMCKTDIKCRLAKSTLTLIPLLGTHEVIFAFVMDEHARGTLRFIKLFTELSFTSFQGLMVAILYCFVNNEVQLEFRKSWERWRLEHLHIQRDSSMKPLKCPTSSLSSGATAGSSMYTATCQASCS
Chain of Glucagon receptor (P47871 whole entry): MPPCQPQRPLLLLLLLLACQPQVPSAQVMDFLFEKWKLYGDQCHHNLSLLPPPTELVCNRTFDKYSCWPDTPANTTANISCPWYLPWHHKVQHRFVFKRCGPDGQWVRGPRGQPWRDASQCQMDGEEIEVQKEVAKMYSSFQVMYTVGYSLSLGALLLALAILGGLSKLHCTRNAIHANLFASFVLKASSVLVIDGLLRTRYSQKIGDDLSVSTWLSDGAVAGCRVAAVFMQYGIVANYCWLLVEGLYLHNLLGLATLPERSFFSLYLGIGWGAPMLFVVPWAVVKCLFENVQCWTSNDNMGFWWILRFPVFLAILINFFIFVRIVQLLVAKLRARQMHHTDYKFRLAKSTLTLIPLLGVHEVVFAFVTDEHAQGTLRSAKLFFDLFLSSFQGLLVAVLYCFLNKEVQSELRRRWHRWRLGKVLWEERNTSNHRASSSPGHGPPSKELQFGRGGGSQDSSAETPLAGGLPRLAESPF

Compound | Ratio EC50 (Macaca mulatta) | EC50 (Glucagon receptor) [nM] | EC50 [1] [nM] | Ratio EC50 (Homo sapiens) | EC50 [2] [nM] | EC50 [3] [nM]
CCCCCCCCCCCCCCCC(=O)N[C@@H](CCC(=O)N[C@@H](CCC(=O)NCCCC[C@H](NC(=O)[C@H](CC(=O)O)NC(=O)[C@H](CO)NC(=O)[C@@H](NC(=O)[C@H](Cc1ccccc1)NC(=O)[C@@H](NC(=O)CNC(=O)[C@H](CCC(N)=O)NC(=O)[C@@H](CO)NC(=O)[C@@H](N)Cc1cnc[nH]1)[C@@H](C)O)[C@@H](C)O)C(=O)N[C@@H](CO)C(=O)N[C@@H](CCCCN)C(=O)N[C@@H](Cc1ccc(O)cc1)C(=O)N[C@@H](CC(C)C)C(=O)N[C@@H](CC(=O)O)C(=O)N[C@@H](CCC(=O)O)C(=O)N[C@@H](CCCNC(=N)N)C(=O)N[C@@H](C)C(=O)N[C@@H](C)C(=O)N[C@@H](CCC(N)=O)C(=O)N[C@@H](CC(=O)O)C(=O)N[C@@H](Cc1ccccc1)C(=O)N[C@H](C(=O)N[C@@H](CCC(N)=O)C(=O)N[C@@H](Cc1c[nH]c2ccccc12)C(=O)N[C@@H](CC(C)C)C(=O)N[C@@H](CC(C)C)C(=O)N[C@@H](CC(=O)O)C(=O)N[C@H](C(N)=O)[C@@H](C)O)C(C)C)C(=O)O)C(=O)O | 0.5 | 0.017 | 0.013 | 1.3 | 0.008 | 0.015
CCCCCCCCCCCCCCCC(=O)N[C@@H](CCC(=O)N[C@@H](CCC(=O)NCCCC[C@H](NC(=O)[C@H](CC(=O)O)NC(=O)[C@H](CO)NC(=O)[C@@H](NC(=O)[C@H](Cc1ccccc1)NC(=O)[C@@H](NC(=O)CNC(=O)[C@H](CCC(N)=O)NC(=O)C(C)(C)NC(=O)[C@@H](N)Cc1cnc[nH]1)[C@@H](C)O)[C@@H](C)O)C(=O)N[C@@H](CO)C(=O)N[C@@H](CCCCN)C(=O)N[C@@H](Cc1ccc(O)cc1)C(=O)N[C@@H](CC(C)C)C(=O)N[C@@H](CC(=O)O)C(=O)NC(C)(C)C(=O)N[C@@H](CCCNC(=N)N)C(=O)N[C@@H](C)C(=O)N[C@@H](C)C(=O)N[C@@H](CCC(N)=O)C(=O)N[C@@H](CC(=O)O)C(=O)N[C@@H](Cc1ccccc1)C(=O)N[C@H](C(=O)N[C@@H](CCC(N)=O)C(=O)N[C@@H](Cc1c[nH]c2ccccc12)C(=O)N[C@@H](CC(C)C)C(=O)N[C@@H](CCSC)C(=O)N[C@@H](CC(=O)O)C(=O)N[C@H](C(=O)N[C@@H](CCCCNC(=O)CC[C@H](N)C(=O)O)C(N)=O)[C@@H](C)O)C(C)C)C(=O)O)C(=O)O | 9.1 | 0.048 | 0.022 | 2.1 | 0.064 | 0.007
CCCCCCCCCCCCCCCC(=O)N[C@@H](CCC(=O)N[C@@H](CCC(=O)NCCCC[C@H](NC(=O)[C@H](CC(=O)O)NC(=O)[C@H](CO)NC(=O)[C@@H](NC(=O)[C@H](Cc1ccccc1)NC(=O)[C@@H](NC(=O)CNC(=O)[C@H](CCC(N)=O)NC(=O)[C@@H](CO)NC(=O)[C@@H](N)Cc1cnc[nH]1)[C@@H](C)O)[C@@H](C)O)C(=O)N[C@@H](CO)C(=O)N[C@@H](CCCCN)C(=O)N[C@@H](Cc1ccc(O)cc1)C(=O)N[C@@H](CC(C)C)C(=O)N[C@@H](CC(=O)O)C(=O)N[C@H](C(=O)N[C@@H](CCCNC(=N)N)C(=O)N[C@@H](C)C(=O)N[C@@H](C)C(=O)N[C@@H](CCC(N)=O)C(=O)N[C@@H](CC(=O)O)C(=O)N[C@@H](Cc1ccccc1)C(=O)N[C@H](C(=O)N[C@@H](CCC(N)=O)C(=O)N[C@@H](Cc1c[nH]c2ccccc12)C(=O)N[C@@H](CC(C)C)C(=O)N[C@@H](CC(C)C)C(=O)N[C@@H](CC(=O)O)C(=O)N[C@H](C(N)=O)[C@@H](C)O)C(C)C)C(C)C)C(=O)O)C(=O)O | 0.9 | 0.062 | – | 0.5 | 0.018 | 0.021
CCCCCCCCCCCCCCCC(=O)N[C@@H](CCC(=O)N[C@@H](CCC(=O)NCCCC[C@H](NC(=O)[C@H](CC(=O)O)NC(=O)[C@H](CO)NC(=O)[C@@H](NC(=O)[C@H](Cc1ccccc1)NC(=O)[C@@H](NC(=O)CNC(=O)[C@H](CCC(N)=O)NC(=O)C(C)(C)NC(=O)[C@@H](N)Cc1cnc[nH]1)[C@@H](C)O)[C@@H](C)O)C(=O)N[C@@H](CO)C(=O)N[C@@H](CCCCN)C(=O)N[C@@H](Cc1ccc(O)cc1)C(=O)N[C@@H](CC(C)C)C(=O)N[C@@H](CC(=O)O)C(=O)NC(C)(C)C(=O)N[C@@H](CCCNC(=N)N)C(=O)N[C@@H](C)C(=O)N[C@@H](C)C(=O)N[C@@H](CCC(N)=O)C(=O)N[C@@H](CC(=O)O)C(=O)N[C@@H](Cc1ccccc1)C(=O)N[C@H](C(=O)N[C@@H](CCC(N)=O)C(=O)N[C@@H](Cc1c[nH]c2ccccc12)C(=O)N[C@@H](CC(C)C)C(=O)N[C@@H](CC(C)C)C(=O)N[C@@H](CC(N)=O)C(=O)N[C@H](C(=O)N[C@@H](CCCCNC(=O)CC[C@H](N)C(=O)O)C(N)=O)[C@@H](C)O)C(C)C)C(=O)O)C(=O)O | 2.4 | 0.058 | 0.029 | 2 | 0.334 | 0.14
CCCCCCCCCCCCCCCC(=O)N[C@@H](CCC(=O)N[C@@H](CCC(=O)NCCCC[C@H](NC(=O)[C@H](CC(=O)O)NC(=O)[C@H](CO)NC(=O)[C@@H](NC(=O)[C@H](Cc1ccccc1)NC(=O)[C@@H](NC(=O)CNC(=O)[C@H](CCC(N)=O)NC(=O)C(C)(C)NC(=O)[C@@H](N)Cc1cnc[nH]1)[C@@H](C)O)[C@@H](C)O)C(=O)N[C@@H](CO)C(=O)N[C@@H](CCCCN)C(=O)N[C@@H](Cc1ccc(O)cc1)C(=O)N[C@@H](CC(C)C)C(=O)N[C@@H](CC(=O)O)C(=O)NC(C)(C)C(=O)N[C@@H](CCCNC(=N)N)C(=O)N[C@@H](CCCNC(=N)N)C(=O)N[C@@H](C)C(=O)N[C@@H](CCC(N)=O)C(=O)N[C@@H](CC(=O)O)C(=O)N[C@@H](Cc1ccccc1)C(=O)N[C@H](C(=O)N[C@@H](CCC(N)=O)C(=O)N[C@@H](Cc1c[nH]c2ccccc12)C(=O)N[C@@H](CC(C)C)C(=O)N[C@@H](CC(C)C)C(=O)N[C@@H](CC(N)=O)C(=O)N[C@H](C(=O)N[C@@H](CCCCNC(=O)CC[C@H](N)C(=O)O)C(N)=O)[C@@H](C)O)C(C)C)C(=O)O)C(=O)O | – | 0.006 | 0.005 | 1.2 | – | –
CCCCCCCCCCCCCCCC(=O)N[C@@H](CCC(=O)N[C@@H](CCC(=O)NCCCC[C@H](NC(=O)[C@H](CC(=O)O)NC(=O)[C@H](CO)NC(=O)[C@@H](NC(=O)[C@H](Cc1ccccc1)NC(=O)[C@@H](NC(=O)CNC(=O)[C@H](CCC(N)=O)NC(=O)C(C)(C)NC(=O)[C@@H](N)Cc1cnc[nH]1)[C@@H](C)O)[C@@H](C)O)C(=O)N[C@@H](CO)C(=O)N[C@@H](CCCCN)C(=O)N[C@@H](Cc1ccc(O)cc1)C(=O)N[C@@H](CC(C)C)C(=O)N[C@@H](CC(=O)O)C(=O)NC(C)(C)C(=O)N[C@@H](CCCNC(=N)N)C(=O)N[C@@H](C)C(=O)N[C@@H](C)C(=O)N[C@@H](CCC(N)=O)C(=O)N[C@@H](CC(=O)O)C(=O)N[C@@H](Cc1ccccc1)C(=O)N[C@H](C(=O)N[C@@H](CCC(N)=O)C(=O)N[C@@H](Cc1c[nH]c2ccccc12)C(=O)N[C@@H](CC(C)C)C(=O)N[C@@H](CC(C)C)C(=O)N[C@@H](CC(=O)O)C(=O)N[C@H](C(N)=O)[C@@H](C)O)C(C)C)C(=O)O)C(=O)O | 2.6 | 0.039 | 0.034 | 1.1 | 0.022 | 0.009
CCCCCCCCCCCCCCCC(=O)N[C@@H](CCC(=O)N[C@@H](CCC(=O)NCCCC[C@H](NC(=O)[C@H](CC(=O)O)NC(=O)[C@H](CO)NC(=O)[C@@H](NC(=O)[C@H](Cc1ccccc1)NC(=O)[C@@H](NC(=O)CNC(=O)[C@H](CCC(N)=O)NC(=O)C(C)(C)NC(=O)[C@@H](N)Cc1cnc[nH]1)[C@@H](C)O)[C@@H](C)O)C(=O)N[C@@H](CO)C(=O)N[C@@H](CCCCN)C(=O)N[C@@H](Cc1ccc(O)cc1)C(=O)N[C@@H](CC(C)C)C(=O)N[C@@H](CC(=O)O)C(=O)NC(C)(C)C(=O)N[C@@H](CCCNC(=N)N)C(=O)N[C@@H](CCCNC(=N)N)C(=O)N[C@@H](C)C(=O)N[C@@H](CCC(N)=O)C(=O)N[C@@H](CC(=O)O)C(=O)N[C@@H](Cc1ccccc1)C(=O)N[C@H](C(=O)N[C@@H](CCC(N)=O)C(=O)N[C@@H](Cc1c[nH]c2ccccc12)C(=O)N[C@@H](CC(C)C)C(=O)N[C@@H](CCSC)C(=O)N[C@@H](CC(N)=O)C(=O)N[C@H](C(=O)N[C@@H](CCCCNC(=O)CC[C@H](N)C(=O)O)C(N)=O)[C@@H](C)O)C(C)C)C(=O)O)C(=O)O | – | 0.06 | 0.04 | 1.5 | – | –
CCCCCCCCCCCCCCCC(=O)N[C@@H](CCC(=O)N[C@@H](CCC(=O)NCCCC[C@H](NC(=O)[C@H](CC(=O)O)NC(=O)[C@H](CO)NC(=O)[C@@H](NC(=O)[C@H](Cc1ccccc1)NC(=O)[C@@H](NC(=O)CNC(=O)[C@H](CCC(N)=O)NC(=O)C(C)(C)NC(=O)[C@@H](N)Cc1cnc[nH]1)[C@@H](C)O)[C@@H](C)O)C(=O)N[C@@H](CO)C(=O)N[C@@H](CCCCN)C(=O)N[C@@H](Cc1ccc(O)cc1)C(=O)N[C@@H](CC(C)C)C(=O)N[C@@H](CC(=O)O)C(=O)NC(C)(C)C(=O)N[C@@H](CCCNC(=N)N)C(=O)N[C@@H](CCCNC(=N)N)C(=O)N[C@@H](C)C(=O)N[C@@H](CCC(N)=O)C(=O)N[C@@H](CC(=O)O)C(=O)N[C@@H](Cc1ccccc1)C(=O)N[C@H](C(=O)N[C@@H](CCC(N)=O)C(=O)N[C@@H](Cc1c[nH]c2ccccc12)C(=O)N[C@@H](CC(C)C)C(=O)N[C@@H](CCSC)C(=O)N[C@@H](CC(N)=O)C(=O)N[C@H](C(N)=O)[C@@H](C)O)C(C)C)C(=O)O)C(=O)O | – | 0.035 | 0.02 | 1.8 | – | –
GLUCAGON | – | – | – | – | 0.003 | 0.038
